From paper PMC4884984, “Identification of approved and investigational drugs that inhibit hypoxia-inducible factor-1 signaling” (Oncotarget, 2016)
Like-named read-outs stand apart in the source and are kept apart here. Each block holds one molecule with its values, some of them ahead of it.

Legend:
Format in all cases: cell-based, human
HIF-1α–NanoLuc = HIF-1α–NanoLuc reporter gene assay (qHTS primary and confirmatory screens)
[1] = test system: hypoxia response element-beta-lactamase (HRE–bla); test: HRE-bla reporter gene assay in ME-180 cells; conditions: Table S7, confirmatory screen; for Emax / IC50: Homo sapiens, ME-180; for Emax: read-out: HRE–bla confirmatory Efficacy; for IC50: read-out: HRE–bla confirmatory IC50
[2] = test system: HIF-1α–NanoLuc HCT116 cells; test: Viability (Luc): CellTiter-Glo counter screen in HIF-1α–NanoLuc cells; conditions: for Viability (Luc) confirmatory IC50: Table S7, 1% O2, 18 h
HRE–bla ME-180 cells = test: Viability (BLA): CellTiter-Glo counter screen in HRE–bla cells; conditions: for IC50: 1% O2, 18 h; for Viability (BLA) confirmatory IC50: Table S7, 1% O2, 18 h
[3] = Homo sapiens, Table S1, primary screen, hypoxia 1% O2, 18 h, read-out: IC50 (primary screen, HIF-1α–NanoLuc assay)
[4] = Homo sapiens, Table S1, primary screen, read-out: Efficacy (primary screen, HIF-1α–NanoLuc assay)
[5] = Homo sapiens, Table S7, confirmatory screen, read-out: HIF-1α–NanoLuc confirmatory Efficacy
[6] = Homo sapiens, Table S7, confirmatory screen, read-out: HIF-1α–NanoLuc confirmatory IC50
[7] = Homo sapiens, ME-180, Table S7, confirmatory screen
[8] = Homo sapiens, Table S7, primary screen, read-out: HIF-1α–NanoLuc primary Efficacy
[9] = Homo sapiens, Table S7, primary screen, read-out: HIF-1α–NanoLuc primary IC50
[10] = Homo sapiens, Table S2, primary screen, read-out: Pathway inhibitors (primary screen) HIF-1α–NanoLuc Activity Efficacy
[11] = Homo sapiens, Table S2, primary screen, read-out: Pathway inhibitors (primary screen) HIF-1α–NanoLuc Activity IC50

- IC50 (HIF-1α–NanoLuc; [3]): 15 µM
Compound: CCOC(=O)C1=C(C)NC(C)=C(C(=O)OC)C1c1cccc([N+](=O)[O-])c1 (stereo not drawn) [Nitrendipine]
- Emax (HIF-1α–NanoLuc; [4]): 157%

- IC50 [1]: 15.9 ± 6.91 µM
- IC50 (HIF-1α–NanoLuc; [6]): 34.5 ± 2.34 µM
Compound: CO[C@H]1C[C@@H]2CC[C@@H](C)[C@@](O)(O2)C(=O)C(=O)N2CCCC[C@H]2C(=O)O[C@H]([C@H](C)C[C@@H]2CC[C@@H](OC(=O)C(C)(CO)CO)[C@H](OC)C2)CC(=O)[C@H](C)/C=C(\C)[C@@H](O)[C@@H](OC)C(=O)[C@H](C)C[C@H](C)/C=C/C=C/C=C/1C [Temsirolimus]
- Emax [1]: 86 ± 7%
- Emax (HIF-1α–NanoLuc; [5]): 92 ± 8%
- Viability (Luc) confirmatory IC50 [2]: Inactive
- IC50 (HRE–bla ME-180 cells; [7]): 27700 ± 1870 nM
- Emax (HRE–bla ME-180 cells; Homo sapiens, ME-180, Table S7, confirmatory screen, read-out: Viability (BLA) confirmatory Efficacy): 116 ± 11%

- IC50 (HIF-1α–NanoLuc; Homo sapiens, HCT-116, HCT116 reporter cells, hypoxia, read-out: HIF-1α–NanoLuc IC50): 6.23 ± 1.64 µM
Compound: C[C@]1(O)C[C@@H](c2nc(-c3ccc4ccc(-c5ccccc5)nc4c3)c3c(N)nccn32)C1 [OSI-906]

- IC50 (HIF-1α–NanoLuc; [3]): 10.6 µM
Compound: COCCOC(=O)C1=C(C)NC(C)=C(C(=O)OC/C=C/c2ccccc2)C1c1cccc([N+](=O)[O-])c1 (stereo not drawn) [Cilnidipine]
- Emax (HIF-1α–NanoLuc; [4]): 63%

- IC50 (HIF-1α–NanoLuc; [3]): 1.06 µM
Compound: CN1CC[C@H](c2c(O)cc(O)c3c(=O)cc(-c4ccccc4Cl)oc23)[C@H](O)C1 [Flavopiridol]
- Emax (HIF-1α–NanoLuc; [4]): 76%

Compound: COc1cc([C@@H]2c3cc4c(cc3[C@H](O)[C@H]3COC(=O)[C@@H]23)OCO4)cc(OC)c1OC [Picropodphyllin]
- Pathway inhibitors (primary screen) HIF-1α–NanoLuc Activity Efficacy (HIF-1α–NanoLuc; Table S2, primary screen): 159%
- IC50 (HIF-1α–NanoLuc; Table S2, primary screen, read-out: Pathway inhibitors (primary screen) HIF-1α–NanoLuc Activity IC50): 0.53 µM
- Pathway inhibitors (validation) HIF-1α–NanoLuc Activity Efficacy (HIF-1α–NanoLuc; Table S2, validation): 159%
- IC50 (HIF-1α–NanoLuc; Table S2, validation, read-out: Pathway inhibitors (validation) HIF-1α–NanoLuc Activity IC50): 0.53 µM

Compound: O=C(CCCCCCC(=O)Nc1ccccc1)NO [Vorinostat]
- Emax (HIF-1α–NanoLuc; [4]): 51%

- HRE–bla confirmatory IC50 [1]: Inactive
- IC50 (HIF-1α–NanoLuc; [6]): 9.39 ± 1.08 µM
- IC50 (HIF-1α–NanoLuc; [9]): 6.68 µM
Compound: CCOc1ccc(Cc2nccc3cc(OCC)c(OCC)cc23)cc1OCC [Ethaverine]
- Emax (HIF-1α–NanoLuc; [5]): 96 ± 2%
- Emax (HIF-1α–NanoLuc; [8]): 67%
- Viability (Luc) confirmatory IC50 [2]: Inactive
- Viability (BLA) confirmatory IC50 (HRE–bla ME-180 cells): Inactive

- Pathway inhibitors (validation) HIF-1α–NanoLuc Activity IC50 (HIF-1α–NanoLuc; Table S2, validation): Inactive
Compound: O=c1[nH]c(=S)[nH]c(-c2ccccc2)c1Cc1c(O)ccc2ccccc12 [Cambinol]

- IC50 (HIF-1α–NanoLuc; [3]): 10.6 µM
Compound: Cc1ccc(-c2cc(C(F)(F)F)nn2-c2ccc(S(N)(=O)=O)cc2)cc1 [Celecoxib]
- Emax (HIF-1α–NanoLuc; [4]): 43%

- IC50 [1]: 3 ± 0.34 µM
- IC50 (HIF-1α–NanoLuc; [6]): 17.3 ± 1.17 µM
- IC50 (HIF-1α–NanoLuc; [9]): 9.44 µM
Compound: CC(=O)Oc1ccccc1C(=O)Nc1ncc([N+](=O)[O-])s1 [Nitazoxanide]
- Emax [1]: 88 ± 1%
- Emax (HIF-1α–NanoLuc; [5]): 101 ± 14%
- Emax (HIF-1α–NanoLuc; [8]): 150%
- IC50 ([2]; Homo sapiens, HCT-116, Table S7, confirmatory screen, 1% O2, 18 h): 9.39 ± 1.08 µM
- IC50 (HRE–bla ME-180 cells; [7]): 3000 ± 340 nM

- IC50 (HIF-1α–NanoLuc; [11]): 11.9 µM
Compound: COc1cc(Nc2c(C#N)cnc3cc(OCCCN4CCN(C)CC4)c(OC)cc23)c(Cl)cc1Cl [Bosutinib]
- Emax (HIF-1α–NanoLuc; [10]): 58%

- IC50 [1]: 0.19 ± 0.01 µM
- IC50 (HIF-1α–NanoLuc; [6]): 2.47 ± 0.79 µM
- IC50 (HIF-1α–NanoLuc; [9]): 1.33 µM
Compound: CC(=O)Oc1ccc(C2(c3ccc(OC(C)=O)cc3)C(=O)Nc3ccccc32)cc1 [Oxyphenisatin acetate]
- Emax [1]: 92 ± 3%
- Emax (HIF-1α–NanoLuc; [5]): 55 ± 9%
- Emax (HIF-1α–NanoLuc; [8]): 84%
- Viability (Luc) confirmatory IC50 [2]: Inactive
- IC50 (HRE–bla ME-180 cells; [7]): 200 ± 10 nM

- IC50 (HIF-1α–NanoLuc; [11]): 0.42 µM
Compound: NC1(c2ccc(-c3nc4ccn5c(=O)[nH]nc5c4cc3-c3ccccc3)cc2)CCC1 [MK-2206]
- Emax (HIF-1α–NanoLuc; [10]): 45%

Compound: OCc1ccc(-c2nn(Cc3ccccc3)c3ccccc23)o1 [YC-1]
- Effect on HIF-1α–NanoLuc level / luciferase activity, in words (HIF-1α–NanoLuc; HCT116 reporter cells): decrease in luciferase expression in a concentration response manner

- HRE–bla confirmatory IC50 [1]: Inactive
Compound: Cc1oncc1C(=O)Nc1ccc(C(F)(F)F)cc1 [Leflunomide]
- Viability (BLA) confirmatory IC50 (HRE–bla ME-180 cells): Inactive

- Pathway inhibitors (primary screen) HIF-1α–NanoLuc Activity IC50 (HIF-1α–NanoLuc; Table S2, primary screen): Inactive
Compound: CNC(=O)c1ccccc1Sc1ccc2c(/C=C/c3ccccn3)n[nH]c2c1 [Axitinib]

- IC50 (HIF-1α–NanoLuc; Homo sapiens, Table S2, validation, read-out: Pathway inhibitors (validation) HIF-1α–NanoLuc Activity IC50): 9.57 ± 5.6 µM
Compound: CC[C@@H]1C(=O)N(C)c2cnc(Nc3ccc(C(=O)N[C@H]4CC[C@H](N5CCN(CC6CC6)CC5)CC4)cc3OC)nc2N1C(C)C [Volasertib]
- Emax (HIF-1α–NanoLuc; Homo sapiens, Table S2, validation, read-out: Pathway inhibitors (validation) HIF-1α–NanoLuc Activity Efficacy): 78 ± 14%

- IC50 (HIF-1α–NanoLuc; [3]): 9.44 µM
Compound: COC(=O)C1=C(C)NC(C)=C(C(=O)OCCN2CCN(C(c3ccccc3)c3ccccc3)CC2)C1c1cccc([N+](=O)[O-])c1 (stereo not drawn) [Manidipine]
- Emax (HIF-1α–NanoLuc; [4]): 86%

Compound: Cc1cc(C)c(/C=C2\C(=O)Nc3ccccc32)[nH]1 [SU-5416]
- Emax [1]: 111 ± 12%
- IC50 [1]: 12.8 ± 0.84 µM
- Viability (BLA) confirmatory IC50 (HRE–bla ME-180 cells): Inactive
